For one experiment, the system named is Male ZDF rats. Briefly: Oral glucose tolerance test (oGTT) in male ZDF rats. In kind it is in vivo. The settings on record: for % Inhibition of Glucose Excursion: 60 min prior to glucose bolus (3 g/kg), AUC relative to vehicle control. How it is done: Male ZDF rats were fasted for 18 h and randomly grouped (n=6) to receive the GPR119 agonist Compound 1 at 3, 10, or 30 mg/kg, the control compound Januvia (3 mg/kg), or a combination of Compound 1 (3 mg/kg) and Januvia (3 mg/kg). The compounds were delivered orally via a gavage needle (p.o., volume 4 mL/kg) 60 min prior to glucose bolus (3 g/kg) (time=−60 min in FIG. 4), with a separate group receiving vehicle (20% hydroxypropyl-beta-cyclodextrin (HPCD)) as control. At time 0 min. a glucose bolus was administered. Levels of blood glucose were assessed using a glucometer (One-Touch Ultra™, LifeScan) at time −60 min (prior to compound administration), at 0 min (at time when glucose bolus was given), and at 30, 60, 90, and 120 min post glucose bolus. The plasma glucose excursion curve (FIG. 4) is shown.

Another experiment deals with Male SD rats. As to the kind of experiment: Gastric emptying in male SD rats (stomach content 6 h post-dosing). In kind it is in vivo. The settings on record: 3, 10, or 30 mg/kg orally. Here is the method:
Male SD rats were fasted for 18 h and randomly grouped (n=5). Fasted rats were allowed to access food for 30 min, and the amount of food consumed was recorded for each rat. At the end of the 30 min food intake, rats were put in cages without food and water, and dosed with Compound 1 at 3, 10, or 30 mg/kg, or vehicle control (20% HPCD) orally, or with exendin-4 (Ex-4) at 100 μg/kg i.p. Six hours post-dosing, rats were euthanized with CO2, and stomach content was determined.

For experiment [1], the system named is Male 129SVE mice. As to the kind of experiment: GIP release in male 129SVE mice (plasma total GIP, ELISA). The settings on record: 3 or 30 mg/kg p.o.; blood sample after 45 min. Format: in vivo. Here is the method: Male 129SVE mice (approximately 8 weeks old) were fasted for 18 h and randomly grouped (n=6) to receive a GPR119 agonist (Compound 1) at 3 or 30 mg/kg body weight. Compound 1 was delivered orally via a gavage needle (4 mL/kg), and after 45 min a blood sample was collected to determine plasma total GIP levels. A separate control group received vehicle (PET (80% PEG: 10% Ethanol: 10% Tween80™)). Plasma GIP levels were determined using a GIP (total) ELISA kit from Millipore.
Background: In an ELISA, binding on a coated surface is turned into a signal by an enzyme label.

In experiment [2] the test system is Male 129SVE mice. Briefly: Oral glucose tolerance test (oGTT) in male 129SVE mice. In kind it is in vivo. The note with it: for Plasma Glucose, Mean: n=6. Here is the method:
Male 129SVE mice (approximately 8 weeks old) were fasted for 18 h and randomly grouped (n=6) to receive a GPR119 agonist (Compound 1) at 3, 10, or 30 mg/kg body weight. The compound was delivered orally via a gavage needle (4 mL/kg) 30 min prior to glucose bolus (3 g/kg) (time=−30 min in FIG. 1), with a separate control group receiving vehicle (20% hydroxypropyl-beta-cyclodextrin (HPCD). At time 0 min, the glucose bolus was administered. Levels of blood glucose were assessed using a glucometer (One-Touch Ultra™, LifeScan) at time −30 min (prior to compound administration), at 0 min (at time when glucose bolus was given), and at 20, 40, 60, 120 min post glucose bolus. The plasma glucose level (Table A) and glucose excursion curve (FIG. 1) are shown. Glucose excursion reduction (area under the curve (AUC)) in compound treated animals relative to vehicle control is given in FIG. 2.

A further experiment addresses T1, GPR119 receptor (Homo sapiens, UniProt Q8TDV5).
T1 construct: expressed in transfected cells
T1 sequence (Q8TDV5 2-335): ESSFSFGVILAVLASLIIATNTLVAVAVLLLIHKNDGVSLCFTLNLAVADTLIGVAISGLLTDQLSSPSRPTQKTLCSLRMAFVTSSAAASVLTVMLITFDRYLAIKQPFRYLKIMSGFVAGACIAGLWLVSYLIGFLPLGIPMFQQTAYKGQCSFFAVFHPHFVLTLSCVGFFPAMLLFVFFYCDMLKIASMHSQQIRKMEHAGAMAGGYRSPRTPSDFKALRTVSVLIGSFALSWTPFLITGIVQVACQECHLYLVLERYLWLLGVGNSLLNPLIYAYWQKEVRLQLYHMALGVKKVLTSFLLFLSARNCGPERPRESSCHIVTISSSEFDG
Briefly: HTRF cAMP detection assay in CHO-K1 cells stably expressing the GPR119 receptor. In kind it is cell-based. How it is done:
GPR119 agonist, Compound 1, was evaluated in an HTRF® cAMP detection assay (Cisbio, cAMP Dynamic 2 Assay Kit; #62AM4PEJ) according to the manufacturer's instructions using CHO-K1 cells stably expressing the GPR119 receptor. CHO-K1 cells were transduced with a lentiviral vector encoding the nucleotide sequence of GPR119 (NCBI mRNA and protein reference sequences: NM_178471.2 & NP_848566). The N-terminus of the GPR119 nucleotide sequence was modified to replace the first, methionine-coding, codon with a nucleotide sequence coding for a standard, nine amino acid, hemagglutinin tag. Following transduction, cells expressing the GPR119 receptor were isolated and a single clone was isolated following standard dilution-cloning procedures. On the day of the assay, cultured CHO-GPR119 cells were harvested, suspended in assay buffer and plated into 384-well assay plates (PerkinElmer® Proxiplate® #6008280) at a density of 2,000 cells per well. A cAMP standard curve was added to each plate. Compound 1 was dissolved in DMSO, serially diluted in DMSO and then diluted in assay buffer before addition to the cells. Compound 1 was evaluated in triplicate, using 10-point, 5-fold serial dilutions starting at 10 μM. […] Plates were then incubated at room temperature for 1 h prior to reading. Time-resolved fluorescence measurements were collected on PerkinElmer Envision™ or BMG Pherastar™ microplate readers. […]
(Time-resolved FRET reads energy transfer from a long-lived donor to a nearby acceptor.)

On to `N[C@@H](CC(=O)N1CCn2c(nnc2C(F)(F)F)C1)Cc1cc(F)c(F)cc1F` [Januvia, 3(R)-amino-1-[3-(trifluoromethyl)-5,6,7,8-tetrahydro[1,2,4]triazolo[4,3-a]pyrazin-7-yl]-4-(2,4,5-trifluorophenyl)butan-1-one phosphate, reference compound], for which the “% Inhibition of Glucose Excursion” value in the experiment with Male ZDF rats (3 mg/kg p.o.) turned out to be 54.2%.

`CCc1cnc(N2CCC(Oc3ncnc(Oc4ccc(S(C)(=O)=O)nc4C)c3F)CC2)nc1` [Compound 1, 4-(1-(5-ethylpyrimidin-2-yl)piperidin-4-yloxy)-5-fluoro-6-(2-methyl-6-(methylsulfonyl)pyridin-3-yloxy)pyrimidine]: in the experiment on Male SD rats, the “Effect on gastric emptying” value is “no significant effect on gastric emptying”. In addition, in the experiment with Male 129SVE mice [1], the “Effect on GIP release (plasma total GIP)” value was “stimulates the release of GIP”. Besides, the “% Inhibition of Glucose Excursion” value with Male ZDF rats (3 mg/kg p.o.) was determined as 19.1%; in the experiment on Male ZDF rats (10 mg/kg p.o.), 30.2%; with Male ZDF rats (30 mg/kg p.o.), 60.7%. Moreover, the “Effect on blood glucose after a challenge with glucose” value with Male ZDF rats (diabetic ZDF rats, 3, 10, or 30 mg/kg p.o.) was “lowered blood glucose”. Moreover, the “Plasma Glucose, Mean” value in the experiment on Male 129SVE mice [2] (3 mg/kg p.o., 20 min post glucose bolus) is 282.8333 mg/dL; with Male 129SVE mice [2] (3 mg/kg p.o., 40 min post glucose bolus), 301.6667 mg/dL; with Male 129SVE mice [2] (3 mg/kg p.o., 60 min post glucose bolus), 270.6667 mg/dL; in the experiment on Male 129SVE mice [2] (3 mg/kg p.o., 120 min post glucose bolus), 151.3333 mg/dL; in the experiment with Male 129SVE mice [2] (3 mg/kg p.o., time 0 min relative to glucose bolus (3 g/kg)), 83.83 mg/dL; in the experiment with Male 129SVE mice [2] (3 mg/kg p.o., time −30 min relative to glucose bolus (prior to compound administration)), 75 mg/dL. For the same molecule, the “Plasma Glucose, Mean” value in the experiment on Male 129SVE mice [2] (10 mg/kg p.o., 20 min post glucose bolus) worked out at 254.3333 mg/dL; in the experiment with Male 129SVE mice [2] (10 mg/kg p.o., 40 min post glucose bolus), 276.8333 mg/dL; in the experiment on Male 129SVE mice [2] (10 mg/kg p.o., 60 min post glucose bolus), 197.8333 mg/dL; with Male 129SVE mice [2] (10 mg/kg p.o., 120 min post glucose bolus), 134 mg/dL; in the experiment with Male 129SVE mice [2] (10 mg/kg p.o., time 0 min relative to glucose bolus (3 g/kg)), 95.67 mg/dL; with Male 129SVE mice [2] (10 mg/kg p.o., time −30 min relative to glucose bolus (prior to compound administration)), 75.67 mg/dL. Also, the “Effect on blood glucose after challenge with glucose” value with Male 129SVE mice [2] (3, 10, or 30 mg/kg p.o., 30 min prior to glucose bolus (3 g/kg)) is listed as “lowered blood glucose”. In addition, the “Effect on plasma glucose levels in oGTT” value in the experiment with Male 129SVE mice [2] (dose of 10 mg/kg) is on record as “significantly reduced plasma glucose levels”. Moreover, at GPR119 receptor, the “Agonist character at GPR119 (HTRF assay)” value is on record as “full agonist”.

Values taken from patent US20140051714A1, “Modulators Of The GPR119 Receptor And The Treatment Of Disorders Related Thereto” (ARENA PHARMACEUTICALS, INC., priority 2011, published 2014).
